Read-outs that look alike come from different tables or passages of the source.
How the values were obtained:
Type in all cases: cell-based
[1] = test system: histone acetylation in P. falciparum 3D7-A10; experiment: Histone acetylation Western blot, wild-type 3D7-A10; details: trophozoites, 3 h exposure
Method: (§3) Synchronous trophozoite-stage (24-32hr post-invasion) cultures at 3–5% parasitemia and 2% hematocrit in complete medium were exposed to test compounds for 3 hr at 37°C. […] DMSO was tested at 0.1% as the vehicle-only control. Following drug exposure, parasites were isolated via saponin lysis ice-cold 0.1% saponin in phosphate-buffered saline (PBS). Isolated parasites were washed 3x in ice-cold PBS containing protease inhibitor cocktail (cOmplete mini, Roche) and lysed in 1x Laemmli Sample Buffer (Biorad) with 5% beta-mercaptoethanol (Sigma-Aldrich). Samples were heated at 99°C for 10 min before centrifugation. Equal quantities of solute were separated on Protean TGX Precast Gels (4–20% gradient) in Tris-SDS-glycine buffer, transferred to nitrocellulose membrane by iblot (Invitrogen), and blocked for 1h in tris-buffered saline (TBS) with 5% skim milk powder. Blocked membranes were probed with antibodies recognising tetra-acetylated H4 (H4ac4, Sigma-Aldrich 06–866), H4K8ac (CST #2594), H3K9ac (CST #9649) or H3 (CST #4499), at 1:1000 dilution, and PfBiP ([Shonhai et al., 2007]) (at 1:5000 dilution) in 3% milk powder TBS with 0.1% Tween 20 at 4°C overnight and with 800CW goat α-rabbit IgG (Licor) at 1:10,000 dilution. Membranes were visualised using a Licor Odyssey CLX imaging system and quantified using ImageJ.

[2] = test system: histone acetylation in P. falciparum Dd2 parent; experiment: Histone acetylation Western blot, Dd2 parent; details: trophozoites, 3 h exposure
Method: as §3

[3] = test system: P. falciparum MMV019721-resistant lines (3D7-A10 or Dd2-B2 derived); experiment: Dose-response assay of MMV019721-selected resistant lines (bulk cultures and clones); details: Plasmodium falciparum
Method: (§1) For in vitro–selected lines, drug susceptibility was measured by SYBR Green I–based assay ([Johnson et al., 2007]; [Smilkstein et al., 2004]). Ring-stage parasites were cultured for 72 hr at 1% hematocrit and 1% starting parasitemia in 384-well black clear-bottom plates containing test compounds plated in triplicate in 12-point serial dilutions. Lysis buffer (0.16% w/v saponin, 1.6% Triton X-100, 5 mM EDTA, and 20 mM Tris-HCl, pH 7.4) with SYBR Green I fluorescent dye (Invitrogen) was added, and fluorescence readings were taken (excitation at 494 nm, emission at 530 nm). Alternatively, Dd2-B2 ring-stage cultures at 0.3% parasitemia and 1% hematocrit were exposed for 72 hr to a range of ten drug concentrations that were 2-fold serially diluted in duplicates along with drug-free controls. Parasite survival was assessed by flow cytometry on an Accuri C6 (BD Biosciences) using SYBR Green and MitoTracker Deep Red FM (Life Technologies) as nucleic acid stain and vital dyes respectively. EC50 values were calculated using a nonlinear regression curve fit in Prism Software version 8 (GraphPad).
(§2) Bulk cultures were tested for reduced drug susceptibility and individual clones were isolated by limiting dilution.

[4] = test system: P. falciparum MMV084978-resistant clones (Dd2-B2 derived); experiment: Dose-response assay of MMV084978-selected resistant clones; details: Plasmodium falciparum
Method: as §1, with “Ring-stage” for “For in vitro–selected lines, drug susceptibility was measured by SYBR Green I–based assay ([Johnson et al., 2007]; [Smilkstein et al., 2004]). Ring-stage”, “Lysis buffer (0.16% w/v saponin, 1.6% Triton X-100, 5 mM EDTA, and 20 mM Tris-HCl, pH 7.4) with SYBR Green I fluorescent dye (Invitrogen) was added, and fluorescence readings were taken (excitation at 494 nm, emission at 530 nm).” left out
as §2

In the case of `O=C1C(O)=C([C@H]2CC[C@H](c3ccc(Cl)cc3)CC2)C(=O)c2ccccc21` [Atovaquone, reference compound], the “acetylation of H4K8ac, H3K9ac and tetra-acetylated H4 (H4Ac4) histone markers relative to DMSO” value [1] is reported as “no effect”.

With `CCN(CC)S(=O)(=O)c1ccc(Cl)c(C(=O)Nc2ccc3nc(C)sc3c2)c1` [MMV019721] the “histone acetylation in Dd2 parent” value [2] was “dose-dependent reduction”, the EC50 ([3]; MDR1, read-out: MMV019721 mean EC50 (nM) ± SD (n), selection 9, Dd2-B2, clone B3, AcAS CNV, MDR1 CNV, AP2-I CNV) was 1400 ± 200 nM and the EC50 ([3]; read-out: MMV019721 mean EC50 (nM) ± SD (n), selection 1, Dd2-B2, clone E4, AcAS:A597V) was 7700 ± 570 nM. For the same compound, the EC50 ([3]; read-out: MMV019721 mean EC50 (nM) ± SD (n), selection 2, Dd2-B2, clone E10, AcAS:A597V) was 9200 ± 810 nM, the EC50 ([3]; read-out: MMV019721 mean EC50 (nM) ± SD (n), selection 2, Dd2-B2, clone F12, AcAS:A597V, n=1) was 8400 nM and the EC50 ([3]; read-out: MMV019721 mean EC50 (nM) ± SD (n), selection 3, Dd2-B2, clone F2, AcAS:A597V) was 9000 ± 490 nM. The EC50 ([3]; read-out: MMV019721 mean EC50 (nM) ± SD (n), selection 3, Dd2-B2, clone F10, AcAS:A597V) was 11000 ± 1300 nM, the EC50 ([3]; read-out: MMV019721 mean EC50 (nM) ± SD (n), selection 4, 3D7-A10, Bulk, sequencing not determined) was 460 ± 100 nM and the EC50 ([3]; read-out: MMV019721 mean EC50 (nM) ± SD (n), selection 5, 3D7-A10, clone 2B1C, AcAS:T648M) was 7700 ± 1200 nM. For the same compound, the EC50 ([3]; read-out: MMV019721 mean EC50 (nM) ± SD (n), selection 5, 3D7-A10, clone 2B1F, AcAS:T648M) was 7500 ± 1400 nM, the EC50 ([3]; read-out: MMV019721 mean EC50 (nM) ± SD (n), selection 5, 3D7-A10, clone 2B12B, AcAS:T648M) was 7400 ± 500 nM and the EC50 ([3]; read-out: MMV019721 mean EC50 (nM) ± SD (n), selection 6, 3D7-A10, clone 3B1D, AcAS:T648M) was 7100 ± 1700 nM. For the same compound, the EC50 ([3]; read-out: MMV019721 mean EC50 (nM) ± SD (n), selection 6, 3D7-A10, clone 3B6H, AcAS:T648M) was 6800 ± 420 nM, the EC50 ([3]; read-out: MMV019721 mean EC50 (nM) ± SD (n), selection 6, 3D7-A10, clone 3B11G, AcAS:T648M) was 6800 ± 1100 nM and the EC50 ([3]; read-out: MMV019721 mean EC50 (nM) ± SD (n), selection 7, 3D7-A10, clone 4B3D, AcAS:T648M) was 7700 ± 1700 nM. It also gave an EC50 ([3]; read-out: MMV019721 mean EC50 (nM) ± SD (n), selection 7, 3D7-A10, clone 4B4H, AcAS:T648M) of 8400 ± 680 nM, an EC50 ([3]; read-out: MMV019721 mean EC50 (nM) ± SD (n), selection 7, 3D7-A10, clone 4B8B, AcAS:T648M) of 7500 ± 1100 nM and an EC50 ([3]; read-out: MMV019721 mean EC50 (nM) ± SD (n), selection 8, Dd2-B2, clone A3, AcAS CNV, AP2-I CNV) of 1400 ± 90 nM. For the same compound, the EC50 ([3]; read-out: MMV019721 mean EC50 (nM) ± SD (n), selection 10, Dd2-B2, clone C3, ACS11 INDEL(Leu24-Asp30), AP2-I CNV) was 2000 ± 170 nM, the EC50 ([3]; read-out: MMV019721 mean EC50 (nM) ± SD (n), selection 11, 3D7-A10, clone 1E9, sequencing not determined) was 3000 ± 250 nM and the EC50 ([3]; read-out: MMV019721 mean EC50 (nM) ± SD (n), selection 11, 3D7-A10, clone 1E12, AcAS: Ala652Thr) was 2700 ± 270 nM. It also gave an EC50 ([3]; read-out: MMV019721 mean EC50 (nM) ± SD (n), selection 11, 3D7-A10, clone 1G4, sequencing not determined) of 2000 ± 600 nM, an EC50 ([3]; read-out: MMV019721 mean EC50 (nM) ± SD (n), selection 11, 3D7-A10, clone 1G8, ACS11:Thr767Ile) of 1700 ± 340 nM and an EC50 ([3]; read-out: MMV019721 mean EC50 (nM) ± SD (n), selection 12, 3D7-A10, clone 2B4, AcAS:T648M) of 8500 ± 840 nM. For the same compound, the EC50 ([3]; read-out: MMV019721 mean EC50 (nM) ± SD (n), selection 12, 3D7-A10, clone 2C6, sequencing not determined) was 2200 ± 770 nM, the EC50 ([3]; read-out: MMV019721 mean EC50 (nM) ± SD (n), selection 12, 3D7-A10, clone 2D11, sequencing not determined) was 7100 ± 1300 nM and the EC50 ([3]; read-out: MMV019721 mean EC50 (nM) ± SD (n), selection 12, 3D7-A10, clone 2G6, AcAS: Ala652Thr) was 4000 ± 630 nM. For the same compound, the EC50 ([3]; read-out: MMV019721 mean EC50 (nM) ± SD (n), selection 13, 3D7-A10, clone 3B9, sequencing not determined) was 2300 ± 680 nM, the EC50 ([3]; read-out: MMV019721 mean EC50 (nM) ± SD (n), selection 13, 3D7-A10, clone 3C7, sequencing not determined) was 2300 ± 530 nM and the EC50 ([3]; read-out: MMV019721 mean EC50 (nM) ± SD (n), selection 13, 3D7-A10, clone 3D10, ACS11: Asp269Gly) was 1500 ± 82 nM. The EC50 ([3]; read-out: MMV019721 mean EC50 (nM) ± SD (n), selection 13, 3D7-A10, clone 3G8, ACS11: Ser74Leu) was 2200 ± 570 nM, the EC50 ([3]; read-out: PfAcAS:A597V-resistant clone EC50, range over A597V clones) was 7700 to 11000 nM and the EC50 ([3]; read-out: PfAcAS:T648M EC50, range over T648M clones) was 6800 to 8400 nM.

`O=C(NNC(=O)c1csnn1)c1ccc(Cl)cc1` [MMV084978] was tested, and the EC50 ([4]; DD2, read-out: MMV084978 mean EC50 (nM) ± SD (n), selection 1, Dd2-B2, clone A7, AcAS:A597V) was > 9600 nM, the EC50 ([4]; DD2, read-out: MMV084978 mean EC50 (nM) ± SD (n), selection 1, Dd2-B2, clone C11, sequencing not determined) was 2500 ± 42 nM and the EC50 ([4]; DD2, read-out: MMV084978 mean EC50 (nM) ± SD (n), selection 1, Dd2-B2, clone E5, sequencing not determined) was 2600 ± 47 nM. The EC50 ([4]; DD2, read-out: MMV084978 mean EC50 (nM) ± SD (n), selection 1, Dd2-B2, clone F1, sequencing not determined) was 2800 ± 260 nM, the EC50 ([4]; DD2, read-out: MMV084978 mean EC50 (nM) ± SD (n), selection 1, Dd2-B2, clone F9, sequencing not determined) was 2100 ± 53 nM and the EC50 ([4]; DD2, read-out: MMV084978 mean EC50 (nM) ± SD (n), selection 1, Dd2-B2, clone G8, AcAS:A652S) was 2500 ± 24 nM. For the same compound, the EC50 ([4]; DD2, read-out: MMV084978 mean EC50 (nM) ± SD (n), selection 2, Dd2-B2, clone B8, sequencing not determined) was 2400 ± 33 nM, the EC50 ([4]; DD2, read-out: MMV084978 mean EC50 (nM) ± SD (n), selection 2, Dd2-B2, clone C4, sequencing not determined) was 2400 ± 1.7 nM and the EC50 ([4]; DD2, read-out: MMV084978 mean EC50 (nM) ± SD (n), selection 2, Dd2-B2, clone E9, AcAS:A652S) was 2600 ± 76 nM. The EC50 ([4]; DD2, read-out: MMV084978 mean EC50 (nM) ± SD (n), selection 2, Dd2-B2, clone F8, sequencing not determined) was 2600 ± 7 nM and the EC50 ([4]; DD2, read-out: MMV084978 mean EC50 (nM) ± SD (n), selection 2, Dd2-B2, clone H12, AcAS:Y607C) was 970 ± 41 nM.

Reference: PMC8878317, “Chemogenomics identifies acetyl-coenzyme A synthetase as a target for malaria treatment and prevention” (Cell Chemical Biology, 2022)
